Source: US11034735B2, “Hybrid peptide, set of hybrid peptides, composition, uses of the hybrid peptide, method for inducing an immune response and kits” (priority 2017, dated 2021)

What was measured:
A. marginale antigen = assay: Indirect immunofluorescence reaction, sera of inoculated mice; type: in vivo; conditions: serum 1:25
Experimental: (§1) The immunogenicity of each peptide was checked immunizing BALB/c mice, approximately six weeks old, with […] of protein (Machado et al., 1994). The mice were divided into groups of three animals each. The groups were: P28, P41, P42, P44, P50, P51, P53, P54, Pool (mice inoculated with a pool of peptides, in the case with all 8 hybrid peptides) and negative control group. For inoculations, the peptides were emulsified in Freund's complete adjuvant (Sigma) and inoculated intramuscularly in the quadriceps. Two further immunizations, on the 14th and 28th day after inoculation, were performed using incomplete Freund's adjuvant (Sigma). Each inoculation was carried out using 10 μg/mL of each peptide. Negative control mice were inoculated with sterile saline in place of the peptides and also emulsified in adjuvant. Blood samples were collected by intracardiac puncture on the 10th day after the last immunization and the sera obtained were stored at −20° C. until evaluated by Dot-ELISA and Western-blotting assays.
The prepared A. marginale antigen-containing blood smear slides were removed from the freezer and thawed at room temperature. […] After drying the slides, they were coverslipped using a buffered glycerine at a 9:1 ratio of glycerine/0.5 M carbonate-bicarbonate buffer pH 9.6 and then observed under a fluorescence microscope (Olympus, BX-FLA).

mouse serum = assay: Western blotting, synthetic peptides with serum of inoculated mice; conditions: in vivo
Experimental: as §1
Samples of synthetic peptides were analyzed by Western blotting. To this end, initially, the samples were submitted to polyacrylamide gel electrophoresis under denaturing conditions, according to the technique recommended by Laemmli (1970). Based on the sample volume 2× concentrated sample buffer (250 mM Tris-HCl pH 6.8, 40% glycerol, 8% SDS, 20% β-mercaptoethanol and 0.008% bromophenol blue) was added. The samples were homogenized, incubated for 5 minutes at 100° C. and applied to the gel. The separation gel was prepared at a concentration of 12% polyacrylamide in buffer (1.875 M Tris, pH 8.8 and 1% SDS) and 5% polyacrylamide for buffer packaging gel (1.875 M Tris, pH 6.8 and 0.5% SDS). Electrophoresis was performed in Tris-Glycine Running Buffer (50 mM Tris, pH 8.6, 1.92 M Glycine and 1% SDS) at 100 V for up to 3 hours and 30 minutes at 0° C. in the Mini-Protean II system (Bio-Rad).
Synthetic peptides processed on the polyacrylamide gel (SDS-PAGE) were transferred to the nitrocellulose membrane for analysis by Wester blot (TOWBIN et al., 1979). The nitrocellulose membrane (Merck) was previously incubated in ice cold transfer buffer (0.58% Tris Base pH 8.3, 20% methanol and 0.29% glycine). For this, the membrane was placed in the “Mini Trans-Blot” (Bio-Rad) electrotransfer system containing the same buffer and the transfer was performed at 100 V for 90 minutes. The membrane was incubated in TBS-Tween (10 mM Tris-HCl pH 7.5; 150 mM NaCl, 0.05% Tween-20) plus 5% skim milk powder for 12 hours at 4° C. under low agitation, for saturation of non-specific binding sites. The membrane was then incubated with each serum from each mouse alone or incubated with calf serum for 2 hours at room temperature under slow stirring. […]

serum of BALB/c mice = assay: Dot-ELISA, synthetic peptides with serum of immunized BALB/c mice; type: in vivo; design: key to Peptide Reactivity, Mice serum inoculated with isolated peptides 1 / Peptide Reactivity, Mice serum inoculated with isolated peptides 2 / Peptide Reactivity, Mice serum inoculated with isolated peptides 3 / Peptide Reactivity, Mice serum inoculated with pool / Peptide Reactivity, Mice serum inoculated with Saline (Negative Control) / Reaction with pool of peptides, Mouse 1 serum / Reaction with pool of peptides, Mouse 2 serum / Reaction with pool of peptides, Mouse 3 serum: — = Did not react; X = Reacted; conditions: for Peptide Reactivity, Mice serum inoculated with pool / Peptide Reactivity, Mice serum inoculated with isolated peptides 1 / Peptide Reactivity, Mice serum inoculated with isolated peptides 2 / Peptide Reactivity, Mice serum inoculated with isolated peptides 3 / Peptide Reactivity, Mice serum inoculated with Saline (Negative Control) / Reaction with pool of peptides, Mouse 1 serum / Reaction with pool of peptides, Mouse 2 serum / Reaction with pool of peptides, Mouse 3 serum: Dot-ELISA; for Peptide Reactivity, Mice serum inoculated with pool: mice inoculated with pool of all 8 hybrid peptides; for Peptide Reactivity, Mice serum inoculated with isolated peptides 1: serum of mouse 1 inoculated with the same isolated peptide; for Peptide Reactivity, Mice serum inoculated with isolated peptides 1 / Peptide Reactivity, Mice serum inoculated with isolated peptides 2 / Peptide Reactivity, Mice serum inoculated with isolated peptides 3: serum 1:25; for Peptide Reactivity, Mice serum inoculated with isolated peptides 2: serum of mouse 2 inoculated with the same isolated peptide; for Peptide Reactivity, Mice serum inoculated with isolated peptides 3: serum of mouse 3 inoculated with the same isolated peptide; for Peptide Reactivity, Mice serum inoculated with Saline (Negative Control): serum of saline-inoculated mice; for Reaction with pool of peptides, Mouse 1 serum / Reaction with pool of peptides, Mouse 2 serum / Reaction with pool of peptides, Mouse 3 serum: pool of peptides as antigen; for Reaction with pool of peptides, Mouse 1 serum: serum of mouse 1 inoculated with the labelled peptide; for Reaction with pool of peptides, Mouse 2 serum: serum of mouse 2 inoculated with the labelled peptide; for Reaction with pool of peptides, Mouse 3 serum: serum of mouse 3 inoculated with the labelled peptide
Experimental: as §1
(§2) Synthetic peptides were used as antigen in the Dot-ELISA technique to verify their ability to react with specific antibodies present in the serum of BALB/c mice, as well as in calf serum, all immunized. The technique was performed as described by Machado et al. (1994), with minor modifications. Briefly, small nitrocellulose discs were cut using a paper punch and each disc arranged in a flat bottom 24-well culture plate well. 4 μg/mL of each synthetic peptide alone, as well as the peptide pool, were deposited on each disc. The discs were dried at room temperature and then blocked for 12 hours at room temperature with […] TBS buffer (0.1 M Tris, 0.1 M NaCl and 0.5% Tween 20; TBS-Tween 20), plus 5% skim milk powder. Test sera were diluted 1:25 (mice and calf) in TBS-Tween 20 containing 5% skim milk powder and incubated for 120 minutes at room temperature and under constant stirring. Then the discs were subjected to two washes with TBS-Tween 20 plus 5% skim milk powder and one wash with TBS-Tween 20 (5 min interval between each wash). To each mouse serum disc was added the alkaline phosphate-coupled anti-mouse conjugate (anti-mouse IgG goat IgG, Sigma A-3562) diluted 1:30,000 in TBS-Tween 20 plus 5% of skim milk powder. To calf serum-containing discs, it was added alkaline phosphate-coupled anti-bovine conjugate (anti-cattle IgG rabbit IgG, Sigma A-0705) diluted 1:30,000 in TBS-Tween 20, plus 5% skim milk powder. After one hour incubation with the appropriate conjugates, washes were followed as in the previous step.

calf serum = assay: Dot-ELISA, synthetic peptides with serum of calf immunized with peptide pool; type: in vivo; design: key to Peptide Reactivity, Calf serum inoculated with pool: — = Did not react; X = Reacted; conditions: Dot-ELISA; peptide as antigen; calf inoculated with pool SEQ ID NO: 20, 21, 23, 25, 26
Source text: The immunogenicity of the synthetic peptides was verified by immunizing a previously tested calf with negative results for Anaplasma marginale, Babesia bovis and Babesia bigemina by serology and PCR. For inoculations, a peptide pool (SEQ ID NO: 20, SEQ ID NO: 21, SEQ ID NO: 23, SEQ ID NO: 25 and SEQ ID NO: 26) was emulsified in Freund's complete adjuvant (Sigma) and, inoculated intramuscularly in the quadriceps. Two further immunizations, on the 14th and 28th day after inoculation, were performed using incomplete Freund's adjuvant (Sigma). Each inoculation was done using 100 μg/mL of each peptide. Blood samples were collected by jugular puncture on the 10th day after the last immunization and the sera obtained were stored at −20° C. until evaluated by Dot-ELISA and Western-blotting assays.
as §2

| Sequence | Indirect immunofluorescence reaction for A. marginale, inoculated mice (A. marginale antigen) | Western blotting reaction of serum of mice inoculated with synthetic peptide (mouse serum) | Peptide Reactivity, Mice serum inoculated with pool (serum of BALB/c mice; peptide as antigen) | Peptide Reactivity, Mice serum inoculated with isolated peptides 1 (serum of BALB/c mice; peptide as antigen) | Peptide Reactivity, Mice serum inoculated with isolated peptides 2 (serum of BALB/c mice; peptide as antigen) | Peptide Reactivity, Mice serum inoculated with isolated peptides 3 (serum of BALB/c mice; peptide as antigen) | Peptide Reactivity, Mice serum inoculated with Saline (Negative Control) (serum of BALB/c mice; peptide as antigen) | Reaction with pool of peptides, Mouse 1 serum (serum of BALB/c mice) | Reaction with pool of peptides, Mouse 2 serum (serum of BALB/c mice) | Reaction with pool of peptides, Mouse 3 serum (serum of BALB/c mice) | Dot-ELISA reaction of sera from mice inoculated with hybrid peptides alone (serum of BALB/c mice; peptide as antigen) | Peptide Reactivity, Calf serum inoculated with pool (calf serum) |
| --- | --- | --- | --- | --- | --- | --- | --- | --- | --- | --- | --- | --- |
| LAESTEGNLEEVWILGKGGGGDELSKKVCGKGTTSGSTNQCG (Synthetic hybrid peptide) [P42] | positive | reacted | — | X | — | — | — | — | — | — | reacted | — |
| GASTDDAAAAAKIVAMAYGRGGGGTIVPVKTFDDGALTYFQFYDNNKVIP (Synthetic hybrid peptide) [P50] | positive |  | — | — | — | — | — | — | — | — |  | — |
